Measured values taken from ChEMBL document CHEMBL4257526, “Identification of an auxiliary druggable pocket in the DNA gyrase ATPase domain using fragment probes” (Medchemcomm, 2018).

What follows are molecules tested against DNA gyrase (Escherichia coli, UniProt P0AES4+P0AES6) (assay: Inhibition of full length Escherichia coli DNA gyrase ATPase activity measured for 20 mins by lactate dehydrogenase assay).
Assay type: protein-complex assay

| SMILES | IC50 [µM] |
| --- | --- |
| Oc1ccc(Oc2ccc(Cl)cc2)cc1 | 270 |
| Cc1ccc(CCC(=O)O)cc1 | 120 |
| Cc1cc(Oc2ccc(Cl)cc2Cl)ccc1O | 84 |
| Oc1ccc(Oc2ccc(Cl)cc2Cl)cc1 | 120 |
| CC(C)(c1ccccc1)c1ccc(O)cc1 | 390 |
| Oc1ccc(Oc2cccc(Cl)c2)cc1 | 320 |

More lines, now with the values ahead:

| IC50 [µM] | SMILES |
| --- | --- |
| 240 | Oc1ccc(Oc2cccc(C(F)(F)F)c2)cc1 |
| 100 | Oc1ccc(Oc2ccc(C(F)(F)F)cc2Cl)cc1 |
| 180 | Oc1ccc(Oc2ccc(C(F)(F)F)cc2)cc1 |
